Values quoted from earlier work, collected in patent US9211341B2, “Method of manufacturing a pharmaceutical composition having chelating type complex micelles” (Original BioMedicals Co., Ltd, priority 2011, dated 2015).

NCCCNCCSP(=O)(O)O [amifostine]
blood half-life (βt1/2) (after injection): 8.8 min
time at which the cytoprotective effect appears (after injection): 5 to 10 min
time to reach steady state after distribution to tissues and dephosphorylation (after injection): about 10 minutes
concentration in normal cells (kidney, lung, liver, skin, bone marrow, intestine, spleen) relative to cancer cells (following injection): 10 times
plasma clearance, fraction cleared (within 6 minutes): approximately 90%
